Common to all, as to experiment: DTP human tumour cell line panel, 48 h
For test [1], the system named is HOP-62 NSCLC.
For test [2], the system named is HOP-92 NSCLC.
In test [3] the test system is M14 melanoma.
For test [4], the system named is NCI/ADR-RES ovarian.
The subject of test [5] is OVCAR-8 ovarian.
Test [6] concerns RXF 393 renal.
In test [7] the test system is SK-MEL-28 melanoma.
The test system of test [8] is SW-620 colon.
The test system of test [9] is TK-10 renal.
Test [10] relates to UACC-62 melanoma.

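How tested: cells in 96-well plates exposed to compound for 48 hours at five concentrations. The concentration for 50% growth inhibition is given as GI50. TGI: concentration producing complete growth inhibition.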

By TGI is commonly meant the concentration giving total growth inhibition. Low readings indicate more potent growth arrest, high ones less potent growth arrest. Regarding `CC(=O)N1C(CCc2ccccc2)CC(C)(C=O)C1Cc1ccc(O[Si](C(C)C)(C(C)C)C(C)C)cc1` (stereo unspecified), the concentration for total growth inhibition (TGI) in test [1] was found to be 25.9 µM; in test [2] it was 23.7 µM; in test [3] it was 4.49 µM; in test [4], 31.1 µM; in [5] it was 18.6 µM; in [6] it was 5.81 µM. The TGI was 18.7 µM in test [7], 14.4 µM in [8], 13.7 µM in test [9] and 16.3 µM in [10].

As a reminder, the GI50 is the concentration giving 50% growth inhibition. Turning to `COCCNCc1ccc(-c2cc3nccc(Oc4ccc(NC(=O)C5(C(=O)Nc6ccc(F)cc6)CC5)cc4F)c3s2)nc1`, the GI50 was 1.57 µM in test [1]; 1.74 µM in test [4]; 2.11 µM in test [5]; 1.26 µM in test [8]; 2.21 µM in [9]; 1.89 µM in test [10]. Further, the TGI in [1] turned out to be 3.43 µM; in test [4] it was 4.25 µM; in test [5], 5.13 µM; in test [8] it was 3.27 µM; in test [9] it was 4.43 µM; in [10], 4.66 µM.

For the molecule `Cc1ccc(C(C)C)c(OCC(=O)N/N=C/c2c[nH]c3ccc(Br)cc23)c1`, the total growth inhibition concentration (TGI) in [1] was 22 µM; in test [2], 27.8 µM; in [3] it was 4.63 µM; in [4], 6.6 µM; in test [5], 15 µM; in [6], 3.42 µM. Besides, the TGI in [7] worked out at 21.8 µM; in test [8], 18.6 µM; in [9], 9.15 µM; in [10], 8.92 µM.

With `Nc1nc(Cl)c(N)c(NCC2(CO)CCC(CCc3ccccc3)C2)n1` (stereo unspecified), the total growth inhibition concentration (TGI) is 36.7 µM in test [1]; 49.2 µM in test [2]; 27.4 µM in test [3]; more than 63.1 µM in test [4]; 38.1 µM in test [5]; 37.2 µM in test [6]. Also, the TGI in test [7] is 31.1 µM; in test [8] it was 27.2 µM; in test [9], more than 70.7 µM; in test [10], 26 µM.

With `O=S(O)CCCSSSCCCS(=O)O`, the concentration for total growth inhibition (TGI) in test [1], in test [3], in [6], in [7], in test [9] and in test [10] was more than 100 µM each time.

With `COc1cc(NCCC(=O)O)c2ncccc2c1`, the TGI in [1], in test [2], in test [3], in test [4], in test [5] and in test [6] was more than 100 µM in each case. Also, the total growth inhibition concentration (TGI) in test [7], in [8], in test [9] and in test [10] was more than 100 µM in each case.

With `CSCC(CO)NC(=O)/C=C/c1c(C)[nH]c(=O)[nH]c1=O` (stereo unspecified), the concentration for total growth inhibition (TGI) in [1] is more than 875 µM; in test [2], 742 µM; in test [4], more than 875 µM; in test [5] it was more than 348 µM; in test [6], more than 875 µM; in test [7] it was more than 875 µM. In addition, the TGI in test [8] is more than 492 µM; in [10], more than 875 µM.

Consider `Clc1cc(OCc2nn3c(Cc4ccccc4)nnc3s2)c(Cl)cc1OCc1nn2c(Cc3ccccc3)nnc2s1`, for which the TGI in test [1] was more than 100 µM; in [2] it was 61.2 µM; in [3], more than 100 µM; in test [4], more than 100 µM; in test [5], more than 100 µM; in test [6], 75.4 µM. Also, the concentration for total growth inhibition (TGI) in test [7], in [8], in [9] and in [10] was more than 100 µM in each case.

With `Cc1ccc(Nc2nc(=O)c3c([nH]c4ccccc43)s2)cc1`, the TGI in test [1] is 21.8 µM; in test [2], 25.6 µM; in test [3], 18.1 µM; in test [4], 29.9 µM; in test [5], 28.7 µM; in test [7], more than 100 µM. Besides, the results for the TGI in test [8], in [9] and in [10] were 24.3 µM, 23.9 µM and 21 µM, respectively.

Consider `S=c1[nH]n2c(COc3ccc(Cl)cc3)nnc2s1`, for which the TGI in [1], in test [2], in [3], in test [4], in test [5] and in test [6] was more than 100 µM throughout. The TGI in [7], in test [8], in test [9] and in test [10] was more than 100 µM throughout.

As to `COc1ccc(CCc2ccc3c(c2)OCO3)cc1`, the concentration for total growth inhibition (TGI) in test [1] is more than 100 µM; in test [2], more than 100 µM; in [3] it was more than 100 µM; in test [4], more than 100 µM; in test [5], more than 100 µM; in [6], 86 µM. Further, the TGI in test [7], in test [8], in test [9] and in test [10] was more than 100 µM each time.

Regarding `NNC(=O)c1cc([N+](=O)[O-])ccc1NC(=O)C12CC3CC(CC(C3)C1)C2`, the TGI was more than 100 µM in test [1]; 51.7 µM in test [2]; more than 100 µM in test [3]; 49.2 µM in test [4]; more than 100 µM in [5]; 42.2 µM in test [6]. For the same molecule, the total growth inhibition concentration (TGI) in [8] was more than 100 µM; in test [9], 59.5 µM; in test [10], 28 µM.

`c1ccc2c(c1)SCCc1cn[nH]c1-2`: the TGI in [1], in test [2], in test [4], in test [5], in [6] and in test [7] was more than 100 µM throughout. Besides, the TGI in test [8] and in [10] was more than 100 µM each time.

Regarding `c1csc(-c2ccc(CNc3c4ccccc4nc4ccccc34)cc2)c1`, the GI50 in test [1] was 6.29 µM; in test [2] it was 1.26 µM; in [3] it was 1.75 µM; in test [6], 1.25 µM; in [7], 1.69 µM; in test [9], 1.76 µM. Also, the GI50 in test [10] was 6.74 µM. In addition, the TGI amounted to 38.4 µM in [1]; 2.81 µM in test [2]; 3.4 µM in test [3]; 2.73 µM in [6]; 3.28 µM in test [7]; 3.28 µM in test [9]. The molecule also registered a total growth inhibition concentration (TGI) in [10] of 27 µM.

Consider `O=C1C(c2c(O)[nH]c3ccc(Cl)cc23)=Nc2ccccc21`, for which the TGI in test [1] was 38 µM; in [2], 29.5 µM; in test [3] it was more than 100 µM; in test [4] it was more than 100 µM; in test [5] it was 21.9 µM; in test [6], 7.11 µM. The TGI in test [7] was more than 100 µM; in test [8] it was more than 100 µM; in [9], 18.8 µM; in test [10] it was more than 91.3 µM.

Turning to `NNC(=O)CCc1ccc2ccc3ccccc3c2c1`, the TGI in test [1], in test [2], in [3], in [4], in test [5] and in test [6] was more than 100 µM in each case. Further, the total growth inhibition concentration (TGI) in test [7], in test [8], in test [9] and in test [10] was more than 100 µM in each case.

With `CC[C@@H]([C@H](O)c1ccccc1Cl)[N+](=O)[O-]`, the concentration for total growth inhibition (TGI) in test [1], in test [2], in test [3], in [4], in [5] and in test [6] was more than 100 µM throughout. The concentration for total growth inhibition (TGI) in [7], in test [8], in [9] and in test [10] was more than 100 µM throughout.

In the case of `CN(c1ccccc1)c1nc(=[N+]2CCCC2)ss1`, the TGI in test [3] is more than 100 µM; in test [5] it was more than 100 µM; in test [6], 8.85 µM; in [7] it was more than 100 µM; in test [8], more than 100 µM; in test [9], more than 100 µM. For the same molecule, the total growth inhibition concentration (TGI) in test [10] is more than 100 µM.

Consider `Cc1cccc2c1Sc1ccccc1C2NC(=O)CN(C)C` (stereo unspecified), for which the TGI in [1], in test [3], in [5], in test [6], in test [7] and in [8] was more than 100 µM each time. Also, the TGI in [9] and in [10] was more than 100 µM throughout.

In the case of `O=C(Sc1n[nH]c(=O)[nH]c1=O)c1cccc2nc3ccccc3nc12`, the TGI in test [2] was more than 100 µM; in [3] it was more than 100 µM; in [4], more than 100 µM; in test [5] it was more than 100 µM; in [6], more than 100 µM; in test [7] it was 90.9 µM. The concentration for total growth inhibition (TGI) in test [8], in test [9] and in test [10] was more than 100 µM throughout.

In the case of `c1ccc(C2=NN=C3C(c4ccccc4)=Nc4ccccc4N3C2)cc1`, the TGI in [1] is more than 100 µM; in test [2], more than 88.9 µM; in test [3], 50.4 µM; in test [4], more than 100 µM; in test [5], more than 100 µM; in test [6] it was more than 100 µM. For the same molecule, the TGI was more than 100 µM in test [7], more than 100 µM in test [8], 43.4 µM in [9] and more than 100 µM in test [10].

Take `CO/C=C1\OC(=O)C=C1OC`: the TGI in test [2], in test [4], in [5], in test [6], in test [7] and in test [8] was more than 100 µM throughout. For the same molecule, the TGI in test [10] is more than 100 µM.

With `CC(C)(C)C1=CC(=C2C=Cc3cc(O)ccc3O2)C=C(C(C)(C)C)C1=O`, the TGI in [1] came to 4.02 µM; in test [2], 3.19 µM; in [3] it was 3.29 µM; in [4], 4.9 µM; in [5] it was 3.79 µM; in [6], 3.16 µM. Also, the TGI in [7] amounted to 3.64 µM; in test [8] it was 3.48 µM; in test [9] it was 3.09 µM; in test [10], 2.76 µM.

For the molecule `O=C(Cn1c(C(=O)/C=C/c2ccc(Cl)cc2)nc2ccccc21)c1ccc(Cl)cc1`, the TGI in [1] is 41.6 µM; in test [2], more than 100 µM; in [3] it was 43.6 µM; in test [4], 63 µM; in test [6], 32.6 µM; in test [7], 62.6 µM. Also, the results for the total growth inhibition concentration (TGI) in [8], in [9] and in [10] were more than 100 µM, 98.5 µM and 33.7 µM, respectively.

Take `Nc1ccc(Cn2ccc3c4c(N)nc(N)nc4ccc32)cc1`: the TGI in [1] was 5.09 µM; in [2], 8.7 µM; in test [3], 6.45 µM; in test [4] it was more than 100 µM; in test [5], 22 µM; in test [6] it was 15.4 µM. Moreover, the concentration for total growth inhibition (TGI) in test [7] was determined as 5.32 µM; in test [8], 2.27 µM; in [9] it was 13.6 µM; in [10], 1.5 µM.

`CC1(C)N=C(c2ccccc2)SC12S[C@@H]1CCCC[C@H]1S2`: the TGI in test [1], in test [2], in test [3], in test [4], in test [5] and in test [6] was more than 100 µM in each case. In addition, the total growth inhibition concentration (TGI) in [7], in test [8], in [9] and in test [10] was more than 100 µM in each case.

As for `N#C/C(=C\c1ccc([N+](=O)[O-])o1)c1n[nH]c(Cc2ccccc2)n1`, the total growth inhibition concentration (TGI) in [1] is 5.92 µM; in test [2] it was 5.85 µM; in [3], 3.92 µM; in [4], 12.8 µM; in test [5] it was more than 25.1 µM; in test [6], 2.76 µM. Also, the concentration for total growth inhibition (TGI) in test [7] was 4.09 µM; in test [8], more than 100 µM; in test [9], 4.15 µM; in test [10], 3.55 µM.

Source of the values: PubChem BioAssay (NCI).
